In the NIST ThermoML archive (doi:10.1021/je0602418):
Values joined by “and” are separate entries in the source; they are usually repeats but may differ in a detail not shown here. Identical values can stand only once.

Conditions: for Critical pressure / Critical temperature: pulse heating method

COC(=O)CC(=O)OC [dimethyl 1,3-propanedioate]
Liquid, Transpiration method
Conditions | vapor or sublimation pressure [kPa]
278.2 K | 0.0117
281.2 K | 0.01507
284.3 K | 0.01969
287.2 K | 0.02593
290.8 K | 0.03523
293.2 K | 0.04253
296.1 K | 0.0533
298 K | 0.06386
299.4 K | 0.06974
302.2 K | 0.08729
303.3 K | 0.09423
305.3 K | 0.1063
308.4 K | 0.1313
311.2 K | 0.165
314.3 K | 0.2046

Liquid
Conditions | Critical pressure [kPa] | Critical temperature [K]
– | 3530 | 649

COC(=O)CCC(=O)OC [dimethyl 1,4-butanedioate]
Liquid, Transpiration method
Conditions | vapor or sublimation pressure [kPa]
286.4 K | 0.01062
289.4 K | 0.01389
292.3 K | 0.01793
295.2 K | 0.02339
298.1 K | 0.0292
301.1 K | 0.03798
304.2 K | 0.04988
307.2 K | 0.06242
310.2 K | 0.07685
313.2 K | 0.09759
316.2 K | 0.1187
319.2 K | 0.1462
322.3 K | 0.1846
325.3 K | 0.2206
328.3 K | 0.2686
331.4 K | 0.3232
334.5 K | 0.395
337.5 K | 0.4891
340.6 K | 0.6151

Liquid
Conditions | Critical pressure [kPa] | Critical temperature [K]
– | 3060 | 662

COC(=O)CCCCC(=O)OC [dimethyl 1,6-hexanedioate]
Liquid
Conditions | vapor or sublimation pressure
294.2 K | 0.00284 kPa
297.1 K | 0.00356 kPa
297.4 K | 0.00377 kPa
298.1 K | 0.00391 kPa
300.6 K | 0.00505 kPa
303.1 K | 0.00619 kPa
303.3 K | 0.00649 kPa
305.4 K | 0.00775 kPa
308.1 K | 0.00948 kPa and 0.00946 kPa
311.6 K | 0.01308 kPa
313.2 K | 0.01501 kPa
314.4 K | 0.01648 kPa
317.2 K | 0.02059 kPa
318.2 K | 0.02254 kPa
318.5 K | 0.02198 kPa
320.2 K | 0.02543 kPa
323.3 K | 0.03244 kPa
323.4 K | 0.03434 kPa
326.2 K | 0.03996 kPa
328.3 K | 0.05027 kPa
332.2 K | 0.06088 kPa
333.2 K | 0.07135 kPa
334.3 K | 0.07203 kPa
337.4 K | 0.08819 kPa
338.5 K | 0.1013 kPa and 0.1038 kPa
340.2 K | 0.1114 kPa
343.5 K | 0.1393 kPa and 0.1369 kPa
348.5 K | 0.1893 kPa
348.6 K | 0.2004 kPa
351.7 K | 0.2406 kPa
353.6 K | 0.2604 kPa
358.6 K | 0.3551 kPa and 0.3732 kPa
361.7 K | 0.446 kPa
363.7 K | 0.4731 kPa
368.7 K | 0.6312 kPa and 0.676 kPa
369.7 K | 0.6863 kPa
373.8 K | 0.8347 kPa and 0.8876 kPa

Liquid
Conditions | Critical pressure [kPa] | Critical temperature [K]
– | 2500 | 692

COC(=O)CCCCCC(=O)OC [dimethyl 1,7-heptanedioate]
Liquid, Transpiration method
Conditions | vapor or sublimation pressure [kPa]
291.3 K | 0.0013
293.3 K | 0.00161
298.3 K | 0.00264
303.2 K | 0.00423
308.2 K | 0.00693
313.2 K | 0.01073
318.2 K | 0.01734
323.2 K | 0.02558
328.2 K | 0.03778
333.1 K | 0.0547
338.2 K | 0.0784
343.2 K | 0.1123
348.1 K | 0.1618
353.1 K | 0.2251

Liquid
Conditions | Critical pressure [kPa] | Critical temperature [K]
– | 2370 | 711

COC(=O)C(=O)OC [dimethyl ethanedioate]
Transpiration method
Conditions | vapor or sublimation pressure [kPa]
293.3 K, Crystal | 0.04995
296.3 K, Crystal | 0.06801
298.2 K, Crystal | 0.07959
301.2 K, Crystal | 0.1046
303.2 K, Crystal | 0.1298
306.2 K, Crystal | 0.178
308.2 K, Crystal | 0.2104
311.2 K, Crystal | 0.2873
313.2 K, Crystal | 0.3372
316.2 K, Crystal | 0.4466
318.3 K, Crystal | 0.5545
319.2 K, Crystal | 0.6006
321.2 K, Crystal | 0.7191
325.3 K, Crystal | 0.9657
330.4 K, Liquid | 1.399
333.2 K, Liquid | 1.612
335.2 K, Liquid | 1.819
337.2 K, Liquid | 2.022
340.3 K, Liquid | 2.395
343.2 K, Liquid | 2.841
345.3 K, Liquid | 3.144
346.2 K, Liquid | 3.25
349.2 K, Liquid | 3.905
350.4 K, Liquid | 4.141
352.2 K, Liquid | 4.479
355.5 K, Liquid | 5.325
357.2 K, Liquid | 5.707
359.2 K, Liquid | 6.28
360.6 K, Liquid | 6.526
362.2 K, Liquid | 7.181
365.2 K, Liquid | 8.422

Liquid
Conditions | Critical pressure [kPa] | Critical temperature [K]
– | 4060 | 639

COC(=O)CCCCCCCC(=O)OC [dimethyl nonanedioate]
Liquid
Conditions | vapor or sublimation pressure
298.1 K | 0.00019 kPa
303.1 K | 0.00028 kPa
308.1 K | 0.00054 kPa
313.2 K | 0.0008 kPa and 0.00084 kPa
318.2 K | 0.00138 kPa and 0.00131 kPa
320.2 K | 0.00167 kPa and 0.00164 kPa
323.3 K | 0.00226 kPa
323.4 K | 0.00228 kPa
325.3 K | 0.00278 kPa
328.3 K | 0.00335 kPa and 0.00362 kPa
330.8 K | 0.00466 kPa
333.4 K | 0.00549 kPa and 0.00561 kPa
335.9 K | 0.00711 kPa
338.4 K | 0.00771 kPa and 0.00858 kPa
341 K | 0.01011 kPa
343.4 K | 0.01171 kPa
343.8 K | 0.01311 kPa
348.5 K | 0.01757 kPa
348.6 K | 0.0185 kPa
351.1 K | 0.02169 kPa
353.6 K | 0.02548 kPa and 0.02436 kPa and 0.02518 kPa
358.6 K | 0.03663 kPa
358.7 K | 0.03635 kPa
360.2 K | 0.04123 kPa
363.7 K | 0.05391 kPa and 0.05451 kPa
366.2 K | 0.0656 kPa
368.9 K | 0.07601 kPa and 0.08031 kPa
371.3 K | 0.08918 kPa and 0.08695 kPa
373.8 K | 0.1016 kPa and 0.1065 kPa

COC(=O)CCCCCCC(=O)OC [dimethyl octanedioate]
Liquid, Transpiration method
Conditions | vapor or sublimation pressure [kPa]
293.3 K | 0.00062
295.3 K | 0.00077
298.3 K | 0.00105
303.2 K | 0.00169
308.3 K | 0.00273
313.2 K | 0.00451
318.1 K | 0.00698
323.1 K | 0.01107
328.1 K | 0.01684
333.1 K | 0.02524
338.1 K | 0.03923
343 K | 0.05566
348.1 K | 0.08123
352.1 K | 0.1083

Liquid
Conditions | Critical pressure [kPa] | Critical temperature [K]
– | 2300 | 723

COC(=O)CCCC(=O)OC [dimethyl pentanedioate]
Liquid
Conditions | vapor or sublimation pressure
283.7 K | 0.00275 kPa
286.3 K | 0.00357 kPa
288.4 K | 0.0043 kPa
290.5 K | 0.00564 kPa
293.2 K | 0.00758 kPa
293.3 K | 0.00747 kPa
295.6 K | 0.00958 kPa
296.2 K | 0.00984 kPa
298.2 K | 0.01214 kPa
298.4 K | 0.01204 kPa
300.3 K | 0.01479 kPa
303.2 K | 0.01881 kPa
303.3 K | 0.0193 kPa
305.4 K | 0.02301 kPa
306.2 K | 0.02388 kPa
308.2 K | 0.02904 kPa
309.2 K | 0.03102 kPa
310.2 K | 0.03348 kPa
312.1 K | 0.03995 kPa
313.2 K | 0.04146 kPa
313.5 K | 0.04323 kPa
315.2 K | 0.05031 kPa
315.5 K | 0.05126 kPa
316.2 K | 0.05285 kPa
318.1 K | 0.06049 kPa
318.3 K | 0.06276 kPa
319.2 K | 0.0664 kPa
320.2 K | 0.07343 kPa
320.3 K | 0.06968 kPa
321.4 K | 0.07692 kPa
323.2 K | 0.09072 kPa
323.3 K | 0.08542 kPa and 0.09398 kPa
325.2 K | 0.1033 kPa and 0.1021 kPa
327.1 K | 0.1263 kPa
328.3 K | 0.1276 kPa
329.2 K | 0.148 kPa
330.2 K | 0.1428 kPa
331.3 K | 0.1646 kPa
333.1 K | 0.1752 kPa
333.2 K | 0.1798 kPa
335.3 K | 0.1977 kPa and 0.2051 kPa
338.3 K | 0.2474 kPa and 0.2598 kPa
340.2 K | 0.2719 kPa
341.3 K | 0.3017 kPa
343.1 K | 0.3382 kPa
343.2 K | 0.3425 kPa
345.2 K | 0.3651 kPa
348.1 K | 0.4368 kPa

Liquid
Conditions | Critical pressure [kPa] | Critical temperature [K]
– | 2770 | 682

COC(=O)CCCCCCCCC(=O)OC [dimethyl sebacate]
Liquid
Conditions | vapor or sublimation pressure [kPa]
304.1 K | 0.00014
308.1 K | 0.0002
313.2 K | 0.00036
318.2 K | 0.00059
323.4 K | 0.00101
328.3 K | 0.00162
333.4 K | 0.0025
338.4 K | 0.00388
343.5 K | 0.00594
348.2 K | 0.00839
353.6 K | 0.01405
355.6 K | 0.01486
358.6 K | 0.01849
363.7 K | 0.02808
368.8 K | 0.03965
373.8 K | 0.05473

Liquid
Conditions | Critical pressure [kPa] | Critical temperature [K]
– | 2080 | 742
